Read-outs that look alike come from different tables or passages of the source. Each block holds one compound with its values, some of them ahead of it.
Columns and labels:
[1] = female, guinea pig, in vivo
Procedure: (§2) Female guinea pigs (Charles River) weighing 200-300 g, of approximately 6-8 weeks of age are used (N=4 per group). Prior to any procedure, animals are anesthetized using a combination of xylazine (10 mg/kg), ketamine (40 mg/kg) and acepromazine (0.75 mg/kg) for up to an hour via the intramuscular route. If needed, an intraoperative booster is administered intraperitoneally representing one-tenth of the original dose. Intratympanic injection—Each animal is positioned so that the head is tilted at an angle to favor injection towards the round window niche. Briefly, under visualization with an operating microscope, 50 μl of formulations comprising 0.2-6% dexamethasone and varying concentrations of P407 are administered to the animals. […] During the procedure and until recovery, animals are placed on a temperature controlled (40° C.) heating pad until consciousness is regained at which time they are returned to the vivarium.
(§3) The skin behind the ear of anesthetized guinea pigs is shaved and disinfected with povidone-iodine. An incision is then made behind the ear, and muscles are carefully retracted from over the bulla. A hole is drilled though the bulla using a dental burr so that the middle ear is exposed and accessible. The cochlea and the round window membrane are visualized under a stereo surgical microscope. A unique microhole is hand drilled through the bony shell of the cochlea (active capsule) adjacent to the round window. Perilymph (5 μl) is then collected using a microcapillary inserted into the cochlear scala tympani.

[2] = test system: noise induced hearing loss; assay: Acoustic trauma / noise induced hearing loss model, intratympanic injection, hearing by ABR; assay type: in vivo, guinea pig; details: thermoreversible gel formulation, prophylactic intratympanic administration
Procedure: (§1) The hearing of the animal is tested by recording the brainstem activity in response to a known auditory stimulus. (ABR: Auditory Brainstem Response) at various time points. This measurement is performed under general anesthesia. During the procedure the animal is placed on a heating pad (40° C.) in a sound proof booth and an earphone is fitted loosely into one ear at a time. Three subcutaneous needle electrodes are used to measure the brainstem activity. One is placed behind the ear with the earphone, one on the vertex of the skull and one in the hindleg. The recording then takes place, where the audio stimulus is applied at different frequencies and hearing thresholds, and the brainstem activity recorded.
Following the procedure described in Example 9, a dexamethasone formulation is administered to guinea pigs prior to exposure to acoustic trauma. Hearing is evaluated as described in Example 8 above.
Following the procedure described in Example 9, a SP600125 formulation is administered to guinea pigs prior to exposure to acoustic trauma. Hearing is evaluated as described in Example 9 above.

[3] = test system: Cisplatin induced hearing loss; assay: Cisplatin induced ototoxicity model, intratympanic injection, hearing by ABR; assay type: in vivo, guinea pig
Procedure: Intratympanic injection of a formulation of Example 1 is administered the day before cisplatin administration. The lower right quadrant of the abdomen is shaved 1 inch and swabbed with alcohol. A tiny (2-3 mm) incision is made on the abdomen and a 21 G blunt needle is used to penetrate the abdominal wall and into the intraperitoneal cavity. The needle will be connected to an infusion bag containing cisplatin for a slow infusion of 15-30 minutes in the range of 5-15 mg/kg. The incision site is closed using sterile staples. Animals will be placed on a warming pad during the infusion and while recovering. In addition, animals receive twice daily IP injection of saline solution for 3 days to prevent nephrotoxicity.
as §1, with “One is placed behind the ear with the earphone, one on the vertex of the skull and one in the hindleg.” left out

[4] = In vitro dissolution / mean dissolution time (MDT) of active agent from formulation; assay type: physicochemical
Procedure: The release profile of compositions suitable for methods described herein is optionally determined using dissolution techniques. In one embodiment, dissolution is performed at 37° C. in snapwells (6.5 mm diameter polycarbonate membrane with a pore size of 0.4 μm), 0.2 mL of a gel formulation described herein (e.g., a gel formulation of Example 1) is placed into snapwell and left to harden, then 0.5 mL buffer is placed into reservoir and shaken using a Labline orbit shaker at 70 rpm. Samples are taken every hour (0.1 mL withdrawn and replace with warm buffer). Samples are analyzed for active agent concentration by UV at 245 nm against an external calibration standard curve. Pluronic concentration is analyzed at 624 nm using the cobalt thiocyanate method. Relative rank-order of mean dissolution time (MDT) as a function of % P407 is determined. […] A non-linear relationship indicates release of active agent via a combination of diffusion and/or polymer gel degradation.
The MDT is inversely proportional to the release rate of an active agent from a composition described herein. Experimentally, the released active agent is optionally fitted to the Korsmeyer-Peppas equation: […]
where Q is the amount of active agent released at time t, Qα is the overall released amount of active agent, k is a release constant of the nth order, n is a dimensionless number related to the dissolution mechanism and b is the axis intercept, characterizing the initial burst release mechanism wherein n=1 characterizes an erosion controlled mechanism. The mean dissolution time (MDT) is the sum of different periods of time the drug molecules stay in the matrix before release, divided by the total number of molecules and is optionally calculated by: […]
In alternate embodiments, samples are analyzed using the method described by Li Xin-Yu paper [Acta Pharmaceutica Sinica 2008, 43(2):[…]] and Rank-order of mean dissolution time (MDT) as a function of % P407 is determined.

[5] = Inner ear (perilymph) pharmacokinetics after intratympanic administration in guinea pigs; details: for methylprednisolone peak level in the perilymph: intratympanic administration of hydrogel
Procedure: as §2, §3

[6] = intratympanic administration in hydrogel vehicle

inner ear exposure, dexamethasone in perilymph (AUC) [1]: 84000 to 359000 ng·h/mL | residence time in inner ear compartment (MRT) [1]: 17 to 82 h
Compound: CC(=O)OCC(=O)[C@@]1(O)[C@H](C)C[C@H]2[C@@H]3CCC4=CC(=O)C=C[C@]4(C)[C@@]3(F)[C@@H](O)C[C@@]21C [DA, Dexamethasone acetate]

Compound: IGF-1: insulin-like growth factor, trophic agent/growth factor (PeproTech)
protection against acoustic trauma / prevention of hearing loss [2]: protects against acoustic trauma

Compound: CC#C[C@]1(O)CC[C@H]2[C@@H]3CCC4=CC(=O)CCC4=C3[C@@H](c3ccc(N(C)C)cc3)C[C@@]21C [Mifepristone]
effect on dexamethasone gel protection against acute cisplatin ototoxicity ([3]; 6.0% mifepristone + 6.0% dexamethasone gel, intratympanic, one day before cisplatin 12 mg/kg): antagonizes dexamethasone gel protection

MDT (mean dissolution time) ([4]; 17% Poloxamer 407 formulation): about 3 h | methylprednisolone peak level in the perilymph [5]: 6.5 µg/mL | perilymph level as fraction of the peak levels ([5]; within 3 days after intratympanic hydrogel): 0.8-1.0%
Compound: C[C@H]1C[C@@H]2[C@H]([C@@H](O)C[C@@]3(C)[C@H]2CC[C@]3(O)C(=O)COC(=O)CCC(=O)[O-])[C@@]2(C)C=CC(=O)C=C12.[Na+] [MPS]

Compound: O=C1c2ccccc2-c2n[nH]c3cccc1c23 [SP600125, anthra[1,9-cd]pyrazol-6(2H)-one]
protection against acoustic trauma / prevention of hearing loss [2]: preventing hearing loss due to acoustic trauma

methylprednisolone peak level in the perilymph [5]: 19.2 µg/mL | decline of perilymph levels after peak (in words) ([5]; intratympanic hydrogel): decreased slowly over 10 days
Compound: C[C@H]1C[C@@H]2[C@H]([C@@H](O)C[C@@]3(C)[C@H]2CC[C@]3(O)C(=O)CO)[C@@]2(C)C=CC(=O)C=C12 [MP, methylprednisolone]

MDT (mean dissolution time) ([4]; 17% Poloxamer 407 formulation): about 3 h | MDT (mean dissolution time) ([4]; aqueous solution): 0.3 h | inner ear exposure, dexamethasone in perilymph (AUC) [5, 6]: 28000 to 57000 ng·h/mL | residence time in inner ear compartment (MRT) [5, 6]: 4 to 7 h
Compound: C[C@@H]1C[C@H]2[C@@H]3CCC4=CC(=O)C=C[C@]4(C)[C@@]3(F)[C@@H](O)C[C@]2(C)[C@@]1(O)C(=O)COP(=O)([O-])[O-].[Na+].[Na+] [DSP]
auditory function versus saline control, acute cisplatin ototoxicity ([3]; 2.0% solution, single bilateral intratympanic injection one day before cisplatin 12 mg/kg, Day 7 post cisplatin): No significant differences
